In US20250134907A1, “FUSED DIAZEPINES AS AGONISTS OF THE INSULIN-LIKE 3 (INSL3) PEPTIDE RECEPTOR RXFP2 AND METHODS OF USE THEREOF” (The United States of America,as represented by the …, priority 2022, published 2025):

What was measured:
Type in all cases: cell-based
[1] = target: T1, RXFP2 (Homo sapiens, UniProt Q8WXD0); test: Luciferase cAMP assay in HEK-CRE-Luc-RXFP2 cells; conditions: for EC50: 3 h treatment; for Emax (% Eff vs. 10 nM INSL3): relative to 10 nM INSL3 response
T1 construct: expressed in transfected cells
T1 sequence (Q8WXD0 whole entry): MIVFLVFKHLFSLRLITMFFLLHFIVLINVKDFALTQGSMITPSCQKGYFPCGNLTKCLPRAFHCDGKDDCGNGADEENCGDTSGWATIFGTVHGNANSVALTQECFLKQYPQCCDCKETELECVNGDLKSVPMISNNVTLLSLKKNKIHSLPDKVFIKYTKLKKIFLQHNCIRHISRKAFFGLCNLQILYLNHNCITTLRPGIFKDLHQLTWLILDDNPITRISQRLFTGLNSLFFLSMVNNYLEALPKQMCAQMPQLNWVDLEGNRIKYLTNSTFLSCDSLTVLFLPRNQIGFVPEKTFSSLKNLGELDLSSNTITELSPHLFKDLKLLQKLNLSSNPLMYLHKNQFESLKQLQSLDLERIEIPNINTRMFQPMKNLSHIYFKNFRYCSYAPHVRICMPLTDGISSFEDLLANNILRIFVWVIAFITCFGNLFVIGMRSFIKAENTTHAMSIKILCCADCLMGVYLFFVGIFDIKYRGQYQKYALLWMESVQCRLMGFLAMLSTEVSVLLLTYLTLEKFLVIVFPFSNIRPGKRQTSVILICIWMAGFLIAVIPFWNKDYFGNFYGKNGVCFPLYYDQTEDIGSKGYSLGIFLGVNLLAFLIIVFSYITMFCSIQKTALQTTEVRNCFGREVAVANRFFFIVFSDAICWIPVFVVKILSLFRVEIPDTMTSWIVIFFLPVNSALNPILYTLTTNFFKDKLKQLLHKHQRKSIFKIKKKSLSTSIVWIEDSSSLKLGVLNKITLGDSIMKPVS
Method: A confirmatory cAMP assay was done to eliminate false positives using a HEK293T-CRE-Luc cell line stably transfected with RXFP2 (HEK-CRE-Luc-RXFP2), as this cell line expresses luciferase under the control of the cAMP response element (CRE). Activation of the RXFP2 receptor increases intracellular cAMP levels, inducing luciferase transcription in the nucleus. Thus, luciferase activity in these cells is proportional to cAMP accumulation. For this assay, cells were seeded in 96-well flat-bottom opaque plates at 20,000 cells/well in 60 μL/well of serum-free DMEM medium and allowed to attach overnight at 37° C., 5% CO2. The next morning, cells were treated with 1 μL/well of compound (25 μM-0.21 nM), 1 μM forskolin, or DMSO vehicle. Cells were also treated with 4 μL of INSL3 (100-0.01 nM) (Phoenix Pharmaceuticals, Burlingame, CA) or vehicle serum-free DMEM. Cells were incubated with the treatments for 3 hours at 37° C., 5% CO2, then rested 30 minutes at room temperature for equilibration, after which 65 μL/well of substrate AMPLITE™ Luciferase Reporter Gene Assay Kit (AAT Bioquest, Sunnyvale, CA) was added. Plates were incubated for 40 minutes at room temperature protected from light, and then luciferase output was read on a CLARIOstar plate reader (BMG Labtech, Germany). […]

[2] = target: T2, RXFP1 (Homo sapiens, UniProt Q9HBX9); test: HTRF cAMP counter-screen in HEK-RXFP1 cells; conditions: compound 10 μM-[…], IBMX 200 μM
T2 construct: expressed in transfected cells
T2 sequence (Q9HBX9 1-757): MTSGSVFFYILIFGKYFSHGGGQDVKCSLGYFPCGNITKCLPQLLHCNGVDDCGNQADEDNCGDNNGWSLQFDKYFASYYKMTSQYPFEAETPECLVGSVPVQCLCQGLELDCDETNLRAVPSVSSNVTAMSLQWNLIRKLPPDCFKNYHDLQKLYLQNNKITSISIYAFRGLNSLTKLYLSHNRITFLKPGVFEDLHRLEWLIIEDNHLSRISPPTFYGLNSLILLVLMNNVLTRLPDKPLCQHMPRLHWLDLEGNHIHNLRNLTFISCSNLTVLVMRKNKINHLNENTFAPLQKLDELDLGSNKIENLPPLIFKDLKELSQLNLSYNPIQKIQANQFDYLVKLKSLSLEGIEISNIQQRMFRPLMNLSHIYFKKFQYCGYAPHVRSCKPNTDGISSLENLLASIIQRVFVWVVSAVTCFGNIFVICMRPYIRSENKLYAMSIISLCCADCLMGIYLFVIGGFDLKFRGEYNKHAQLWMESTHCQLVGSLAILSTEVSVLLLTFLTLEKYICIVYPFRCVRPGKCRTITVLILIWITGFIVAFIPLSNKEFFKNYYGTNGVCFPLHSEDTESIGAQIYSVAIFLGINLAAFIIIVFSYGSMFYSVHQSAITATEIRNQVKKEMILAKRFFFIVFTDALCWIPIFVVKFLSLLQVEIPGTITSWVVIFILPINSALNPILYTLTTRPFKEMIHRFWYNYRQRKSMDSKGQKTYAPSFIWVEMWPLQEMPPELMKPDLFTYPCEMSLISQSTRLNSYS
Description: HEK293T cells stably transfected with RXFP1 (HEK-RXFP1) were used to test compound specificity towards the RXFP2 receptor using the HTRF Gs dynamic cAMP assay kit (PerkinElmer, Waltham, MA). This is a competitive immunoassay where a time-resolved fluorescence resonance energy (TR-FRET) signal is produced when exogenous d2-labeled cAMP (acceptor) binds to europium cryptate-conjugated anti-cAMP antibody (donor). No signal is produced when endogenous cAMP binds to the antibody. Thus, the TR-FRET signal is inversely proportional to the concentration of cAMP produced by the cells. The HTRF cAMP assay was carried out in the presence of isobutylmethylxanthine phosphodiesterase inhibitor (IBMX) at 200 μM to amplify the cAMP signal. For this assay, cells were seeded in 96-well flat-bottom opaque plates at 30,000 cells/well in 60 μL/well of serum-free DMEM medium and allowed to attach overnight at 37° C., 5% CO2. The next morning, cells were treated with 1 μL/well of compound (10 μM-1.2 nM), 1 μM forskolin, or DMSO vehicle. Cells were also treated with 4 μL of 10 nM Relaxin2 (Peprotech, Cranbury, NJ) as a positive control or vehicle (serum-free DMEM+IBMX). […] Cells were incubated for 1 hour at room temperature, and then the signal was read on a CLARIOstar plate reader (BMG Labtech, Germany). […]

[3] = target: T3, mouse RXFP2 (Mus musculus, UniProt Q91ZZ5); test: Luciferase cAMP assay in HEK-CRE-Luc cells transiently transfected with mouse RXFP2; conditions: 10 μM-[…], compared with human RXFP2 response
T3 construct: expressed in transfected cells; host or cells: HEK-CRE-Luc (transient, Lipofectamine2000)
T3 sequence (Q91ZZ5 whole entry): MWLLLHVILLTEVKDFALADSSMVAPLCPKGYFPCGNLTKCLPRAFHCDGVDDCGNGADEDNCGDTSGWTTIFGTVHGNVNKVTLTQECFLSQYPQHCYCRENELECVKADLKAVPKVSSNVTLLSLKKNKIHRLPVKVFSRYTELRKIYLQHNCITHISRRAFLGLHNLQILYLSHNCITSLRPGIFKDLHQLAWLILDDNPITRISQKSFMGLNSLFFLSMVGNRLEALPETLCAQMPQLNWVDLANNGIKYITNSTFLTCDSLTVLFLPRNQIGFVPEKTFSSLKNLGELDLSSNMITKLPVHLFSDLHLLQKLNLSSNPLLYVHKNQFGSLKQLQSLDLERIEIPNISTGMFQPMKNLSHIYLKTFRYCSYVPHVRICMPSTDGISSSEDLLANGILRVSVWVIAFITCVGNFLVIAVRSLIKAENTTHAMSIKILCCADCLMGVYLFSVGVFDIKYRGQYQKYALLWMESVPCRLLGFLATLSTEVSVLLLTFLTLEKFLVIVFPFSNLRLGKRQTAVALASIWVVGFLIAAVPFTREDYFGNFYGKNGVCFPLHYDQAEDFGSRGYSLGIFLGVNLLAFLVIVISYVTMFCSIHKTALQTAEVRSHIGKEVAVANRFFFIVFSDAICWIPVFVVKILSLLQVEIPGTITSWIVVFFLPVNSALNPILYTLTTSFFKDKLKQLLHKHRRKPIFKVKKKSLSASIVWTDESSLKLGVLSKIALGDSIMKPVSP
Method: It was of interest if the RXFP2 agonists of formula (I) activate the mouse RXFP2 receptor. HEK-CRE-Luc cells transiently transfected with mouse RXFP2 were used to test agonist activity by measuring induction of cAMP. For this assay, cells were seeded in 6-well flat-bottom clear plates at 0.6 million cells/well in 2 mL/well of growth medium (DMEM, 10% FBS, 1× Pen/Strep) and allowed to attach overnight at 37° C., 5% CO2. The next morning, cells were transfected with 2 μg of plasmid (human or mouse RXFP2) and 6 μL of Lipofectamine2000 (Invitrogen, Waltham, MA) in a total volume of 200 μl/well OPTI-MEM™ I (Thermo Fisher, Waltham, MA) reduced serum medium and incubated an additional 24 hours. The transfected cells were then harvested and seeded in 96-well flat-bottom opaque plates at 30,000 cells/well in 60 μL/well of serum-free DMEM medium and incubated overnight to attach. The next morning, cells were treated with 1 μL/well of compound (10 μM-1.2 nM), 2 μM forskolin, or DMSO vehicle, and with 4 μL of positive control INSL3 (100-0.01 nM) (Phoenix Pharmaceuticals, Burlingame, CA) or vehicle serum-free DMEM. […] Plates were incubated for 40 minutes at room temperature protected from light, and the signal was read on a CLARIOstar plate reader (BMG Labtech, Germany). […]

Row | EC50 ([1]; 25 μM-[…]) [nM] | Emax (% Eff vs. 10 nM INSL3) [1] [%] | RXFP1 cAMP response (activation of RXFP1) [2] | EC50 ([1]; 25 μM-0.21 nM) [nM] | RXFP2 agonist activity ([1]; luciferase cAMP assay) | SMILES | mouse RXFP2 activation (cAMP, luciferase) [3]
1 | 58.5 | 117.1 | do not activate | – | – | O=C1Nc2ccc(-c3cccc(C(F)(F)F)c3)cc2C(=O)N2CCN(C(=O)COc3ccc(OC(F)(F)F)cc3Br)C[C@@H]12 [Example 123, (S)-2-(2-(2-bromo-4-(trifluoromethoxy)phenoxy)acetyl)-8-(3-(trifluoromethyl)phenyl)-1,3,4,12a-tetrahydrobenzo[e]pyrazino[1,2-a][1,4]diazepine-6,12 (2H, 11H)-dione] | activate the mouse RXFP2 receptor at levels comparable to human RXFP2 activation
2 | – | 105.5 | do not activate | 25.8 | potent RXFP2 agonists | O=C1Nc2ccc(-c3cc(C(F)(F)F)cc(C(F)(F)F)c3)cc2C(=O)N2CCN(C(=O)COc3ccc(OC(F)(F)F)cc3Br)C[C@@H]12 [Example 158, (S)-8-(3,5-Bis(trifluoromethyl)phenyl)-2-(2-(2-bromo-4-(trifluoromethoxy)phenoxy)acetyl)-1,3,4,12a-tetrahydrobenzo[e]pyrazino[1,2-a][1,4]diazepine-6,12 (2H, 11H)-dione] | activate the mouse RXFP2 receptor at levels comparable to human RXFP2 activation
